Series [1] deals with Helicobacter pylori (ATCC43504). As to the kind of experiment: MIC and MBC by microdilution method according to CLSI guideline. The class given is cell-based. To be noted: ATCC43504, 72 h. As to the method:
Helicobacter pylori (ATCC43504): Type strain for antibiotic susceptibility testing according to the Clinical & Laboratory Standards Institute (CLSI) guidelines.
(§1) The medium was prepared using Müller-Hinton broth (MH, Difco Inc., Sparks, MD, USA) [w/7% […] (Sigma CO., LTD., St. Louis, USA), 0.4% isovitalex (BBL Inc., Sparks, MD, USA)].
(§2) An antibiotic susceptibility testing was performed using the microdilution method according to the CLSI guideline. Two-fold serial dilution was performed in 12 steps in a 48-well plate with the highest concentration of 128 µg/mL for amocixillin and clarithromycin and 256 µg/mL for omeprazole. The bacteria were inoculated into wells containing only medium without antibiotics to prepare the positive control group, and the wells containing only medium without antibiotics or inoculated bacteria were used as the negative control group. The concentration range of the test substances, zastaprazan (JP-1366) and fexuprazan, was determined through preliminary experiments. H. pylori stored in a deep freezer (-70 °C or lower) was thawed, inoculated onto BHI agar (w/7% laked horse blood and 0.4% isovitalex), cultured at 37 °C under microaerobic conditions of 5% O2, 10% CO2, and 85% N2 gas for three days, and then subcultured onto a fresh medium. The cultured bacteria were harvested, suspended in PBS, inoculated into each well at a concentration of 5 x 10^5 CFU/mL, and then cultured at 37 °C under microaerobic conditions of 5% O2, 10% CO2, and 85% N2 gas for three days. The lowest concentration at which no bacterial growth was observed was determined as the MIC. Thereafter, 10 µL of the culture solution from each well at different concentrations was spotted onto BHI agar (w/7% laked horse blood and 0.4% isovitalex) containing no antibiotics and cultured for three days at 37 °C under microaerobic conditions. The lowest concentration at which no bacteria growth occurred was determined as the MBC.
To determine the MBC, 10 µl of the culture solution from each well was spotted on a solid medium containing no antibiotics or test substances after the MIC determination, and bacterial growth was examined.
(§3) All tests were performed in duplicate, and the results were determined by conducting the experiments in triplicate.
(In general: Dilution methods test growth across graded concentrations, often in twofold steps.)

Series [2] has as its system Helicobacter pylori 26695 (ATCC700329). The series is described as above. It counts as cell-based. To be noted: ATCC700329, 72 h. As to the method:
Helicobacter pylori 26695 (ATCC700329): A strain isolated from a patient known to be associated with the development of gastric cancer. The strain is cytotoxin associated gene (CagA)-positive and vacuolating cytotoxin (VacA)-positive and has a well-known genetic background, so it is mainly used for research purposes.
as §1
An antibiotic susceptibility testing was performed using the microdilution method according to the CLSI guideline. […] The concentration range of the test substances, zastaprazan (JP-1366) and fexuprazan, was determined through preliminary experiments. […] The lowest concentration at which no bacterial growth was observed was determined as the MIC. […] The lowest concentration at which no bacteria growth occurred was determined as the MBC.
To determine the MIC, visual inspection was performed and the absorbance was measured at 600 nm, and the growth was confirmed based on the absorbance of the negative control group containing only the medium. […]
as §3

In series [3] the test system is Helicobacter pylori SS1 (mouse colonizing strain). The series is described as above. To be noted: 72 h, 3 days; for MBC: spotted on antibiotic-free BHI agar, unit from method b141/b236, table prints none. It counts as cell-based. How it is done: Helicobacter pylori SS1 (mouse colonizing strain): A strain known as Sydney strain. The strain is CagA-positive and VacA-positive and has been confirmed to infect and colonize in C57BL/6 mice. The strain is used in animal testing.
as §1
as §2, with “Thereafter, 10 µL of the culture solution from each well at different concentrations was spotted onto BHI agar (w/7% laked horse blood and 0.4% isovitalex) containing no antibiotics and cultured for three days at 37 °C under microaerobic conditions.” left out, “MBC. […]” for “MBC.”
as §3

The test system is the same in series [4]. Put plainly: Clarithromycin MIC and MBC by microdilution with or without JP-1366 in the medium. To be noted: medium containing zastaprazan (JP1366) at 1/2 MIC concentration vs MH medium. The class given is cell-based. How it is done: Helicobacter pylori SS1 (mouse colonizing strain): Known as Sydney strain, the strain is CagA-positive and VacA-positive, and has been confirmed to colonize mice C57BL/6 and is used in animal experiments.
Zastaprazan (JP-1366) was supplied as a product prepared at a concentration of 10 mM in dimethyl sulfoxide (DMSO) solvent, and clarithromycin was prepared at a concentration of 5 mg/mL in DMSO solvent.
An antibiotic susceptibility test was performed by the microdilution method according to CLSI guideline.
The antibiotic susceptibility test was performed using MH broth (7% horse serum, 0.4% IsoVitalex), and the susceptibility test medium for zastaprazan (JP-1366) was prepared at this time. […] Using the medium prepared in this way, clarithromycin was serially diluted 2-fold and in 16 steps, with a maximum concentration of 16 µg/mL. Wells containing only the medium without antibiotics were used as a negative control group, and wells inoculated only with the bacteria in the medium without antibiotics were used as a positive control group. […] The lowest concentration of the sample at which no bacterial growth was observed was determined as the MIC. […] The lowest concentration at which no bacterial growth was observed was determined as the minimum bactericidal concentration(MBC). […]

Series [5] can be described thus: Solubility observed during MIC analysis. To be noted: in MIC medium; formation of suspension, interference in visual/absorbance analysis. It counts as physicochemical. An excerpt: Referring to Table 4 below, since the solubility of zastaprazan (JP-1366) was low, the MIC analysis was difficult (poor solubility, formation of suspension, interference in visual/absorbance analysis), so the inhibitory effect on the H. pylori strains was confirmed through the MBC index.

In series [6] the test system is patients with erosive gastroesophageal reflux disease. Put plainly: Phase 2 clinical trial, healing of mucosal breaks and symptom assessment. The class given is in vivo, human. To be noted: within 24 hours and for seven days after administration; subject diary. How it is done: H. pylori testing was performed by 13C-urea breath test (13C-UBT), gastroscopy (Campylobacter-like organism test, CLO), or tissue biopsy to confirm H. pylori positivity/negativity. […] This clinical trial was a randomized, double-blind, active-controlled, multicenter, phase 2 clinical trial targeting patients with erosive gastroesophageal reflux disease. After the subjects gave written consent to participate in the clinical trial, a screening test was conducted. […] At this time, the subjects were stratified by grade (A, B, C, D) according to the LA classification system classified by upper gastrointestinal endoscopy. Randomly assigned subjects took the clinical trial drug once a day according to the assigned administration group for four weeks. After four weeks of administration of the clinical trial drug, the subjects visited the clinical trial institution to undergo an upper gastrointestinal endoscopy to assess whether they were healed. Healed subjects underwent a Safety Follow-Up (F/U) two weeks later, and unhealed subjects were administered the clinical trial drug for additional four weeks (a total of 8 weeks of administration) and visited the clinical trial institution to undergo an upper gastrointestinal endoscopy. […]

In brackets after ≈: the same amount, converted by molar mass. Like-named read-outs stand apart in the source and are kept apart here.

For the molecule `CC1(C)S[C@@H]2[C@H](NC(=O)[C@H](N)c3ccc(O)cc3)C(=O)N2[C@H]1C(=O)O` [Amoxicillin, Amoxicillin Trihydrate], the MBC in series [1] (strain 43504, spotted on antibiotic-free BHI agar, 3 days, unit from method b141/b236, table prints none, read-out: MBC) worked out at 0.032 µg/mL; in series [2] (strain 26695, spotted on antibiotic-free BHI agar, 3 days, unit from method b141/b236, table prints none, read-out: MBC), 0.032 µg/mL; in series [3], 0.25 µg/mL.
`CC[C@H]1OC(=O)[C@H](C)[C@@H](O[C@H]2C[C@@](C)(OC)[C@@H](O)[C@H](C)O2)[C@H](C)[C@@H](O[C@@H]2O[C@H](C)C[C@H](N(C)C)[C@H]2O)[C@](C)(OC)C[C@@H](C)C(=O)[C@H](C)[C@@H](O)[C@]1(C)O` [Clarithromycin]: the MBC in series [1] stood at 0.063 µg/mL (≈ 0.0842 µM); in series [2], 0.125 µg/mL (≈ 0.167 µM); in series [3] it was 0.125 µg/mL (≈ 0.167 µM). In addition, the MIC in series [1] is 0.032 µg/mL (≈ 0.0428 µM); in series [3] (37 °C, microaerobic, unit from method b141, table prints none), 0.032 µg/mL (≈ 0.0428 µM). Moreover, the “MBC lowered by” value in series [4] was “about 1/2”.
Regarding `Cc1cccc(C)c1CNc1cc(C(=O)N2CCC2)cn2c(C)c(C)nc12.O=C(O)CC(O)(CC(=O)O)C(=O)O` [JP-1366, azetidin-1-yl{8-[(2,6-dimethylbenzyl)amino]-2,3-dimethylimidazo[1,2-a]pyridin-6-yl}methanone citrate salt], in series [5], the solubility result is recorded as “low”. Besides, in series [6], the “evaluation of all symptoms (heartburn, acid reflux, heartburn/acid reflux)” value is “all symptoms tended to be ameliorated”.
Consider `COc1ccc2[nH]c([S+]([O-])Cc3ncc(C)c(OC)c3C)nc2c1` (stereo not shown) [Omeprazole], for which, in series [1], the MBC was 64 µg/mL (≈ 185 µM) and the MIC was 32 µg/mL (≈ 92.6 µM).

A word on the MBC: it is the smallest concentration meeting the test's criterion for killing. As usually defined, the MIC is the lowest concentration that inhibits growth of the organism. A low value points to a more susceptible organism.

The values above are taken from patent EP4628081A1, “COMPOSITION FOR REMOVING HELICOBACTER PYLORI COMPRISING ZASTAPRAZAN OR PHARMACEUTICALLY ACCEPTABLE SALT THEREOF” (priority 2022, dated 2024).
